Drawing on patent US7998987B2, “Inhibitors of c-Met and uses thereof” (Vertex Pharmaceuticals Incorporated, priority 2005, dated 2011), this text covers Ki for 78 compounds.

Structures are written as SMILES.

For orientation: Ki means the equilibrium dissociation constant of an inhibitor or competing ligand from its target.

Sequence of c-Met (P08581 25-1390): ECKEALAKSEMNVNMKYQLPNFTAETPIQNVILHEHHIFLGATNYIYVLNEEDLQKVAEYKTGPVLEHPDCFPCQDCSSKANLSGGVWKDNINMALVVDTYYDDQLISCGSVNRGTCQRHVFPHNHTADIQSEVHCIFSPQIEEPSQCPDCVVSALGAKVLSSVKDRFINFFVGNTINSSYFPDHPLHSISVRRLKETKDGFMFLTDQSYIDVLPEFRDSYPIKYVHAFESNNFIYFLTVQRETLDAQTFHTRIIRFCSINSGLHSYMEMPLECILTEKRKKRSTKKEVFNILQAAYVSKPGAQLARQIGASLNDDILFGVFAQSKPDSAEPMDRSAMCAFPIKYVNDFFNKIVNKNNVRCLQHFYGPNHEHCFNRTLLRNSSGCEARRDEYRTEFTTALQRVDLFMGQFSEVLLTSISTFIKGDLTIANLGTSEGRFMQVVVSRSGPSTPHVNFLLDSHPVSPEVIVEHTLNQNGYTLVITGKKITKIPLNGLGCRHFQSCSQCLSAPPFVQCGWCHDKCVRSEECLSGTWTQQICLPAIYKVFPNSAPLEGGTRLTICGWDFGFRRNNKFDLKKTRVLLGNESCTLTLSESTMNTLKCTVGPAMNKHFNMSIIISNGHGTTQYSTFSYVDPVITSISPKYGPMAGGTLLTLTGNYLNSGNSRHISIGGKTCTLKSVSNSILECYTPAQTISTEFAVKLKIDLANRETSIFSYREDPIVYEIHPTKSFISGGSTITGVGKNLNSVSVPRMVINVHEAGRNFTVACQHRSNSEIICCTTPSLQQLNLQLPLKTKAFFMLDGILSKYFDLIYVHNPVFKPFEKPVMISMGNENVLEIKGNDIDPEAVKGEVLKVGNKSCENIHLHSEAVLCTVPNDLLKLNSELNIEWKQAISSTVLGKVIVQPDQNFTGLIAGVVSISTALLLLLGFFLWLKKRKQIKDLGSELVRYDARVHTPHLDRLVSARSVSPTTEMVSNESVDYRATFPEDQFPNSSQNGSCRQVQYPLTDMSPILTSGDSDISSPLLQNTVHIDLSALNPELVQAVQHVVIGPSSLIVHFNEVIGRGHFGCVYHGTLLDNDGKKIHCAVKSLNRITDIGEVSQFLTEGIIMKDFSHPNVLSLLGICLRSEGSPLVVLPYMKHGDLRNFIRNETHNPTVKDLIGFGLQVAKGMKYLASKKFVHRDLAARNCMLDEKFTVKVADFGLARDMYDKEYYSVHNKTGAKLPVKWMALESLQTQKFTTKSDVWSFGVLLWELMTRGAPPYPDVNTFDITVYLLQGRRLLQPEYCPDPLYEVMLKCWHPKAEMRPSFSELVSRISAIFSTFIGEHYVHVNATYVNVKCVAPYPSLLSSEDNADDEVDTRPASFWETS

The target of one assay is c-Met (Homo sapiens, UniProt P08581). The assay can be described thus: Ki determination for the inhibition of c-Met kinase activity (standard coupled enzyme system). In kind it is biochemical. The settings on record: coupled enzyme system, 200 μM ATP, 80 nM c-Met, 30° C.; read-out: c-Met Ki. The method, boiled down:
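The kinase (80 nM) turned over polyGluTyr (10 μM) with ATP (200 μM, added to start), coupled to NADH oxidation via pyruvate kinase/lactate dehydrogenase at pH 7.5 HEPES, 1.5% DMSO.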
Regarding `Cc1nc2cc(OCc3nnc4ccc(Nc5cccc(Cl)c5)nn34)ccc2s1` [Compound 431], the Ki is more than 2000 nM.

For `Oc1ccc(Cc2nnc3n2N=C(c2ccc4c(c2)OCO4)CS3)cc1` [Compound 540], the Ki is less than 100 nM.

Turning to `Fc1ccc(Cl)cc1Nc1ccc2nnc(Cc3ccc4c(c3)OCO4)n2n1` [Compound 362], the Ki is less than 100 nM.

In the case of `Clc1cccc(Nc2ccc3nnc(Cc4noc5ccccc45)n3n2)c1` [Compound 438], the Ki is more than 2000 nM.

Take `C[C@@H](c1ccc(O)cc1)c1nnc2ccc(Nc3ccc(Cl)nc3)nn12` [Compound 514]: the Ki was in the range of 100 to 2000 nM.

`CN(C)S(=O)(=O)Nc1cccc(Cc2nnc3ccc(Nc4cccc(Cl)c4)nn23)c1` [Compound 404]: the Ki was more than 2000 nM.

Regarding `Oc1cccc2ccc(NCc3nnc4ccc(Nc5cccc(Cl)c5)nn34)nc12` [Compound 454], the Ki is more than 2000 nM.

As to `O=C(O)Cc1ccc(C2=Nn3c(Cc4ccc(O)cc4)nnc3SC2)s1` [Compound 539], the Ki was in the range of 100 to 2000 nM.

With `CC1(C)CC(Nc2ccc3nnc(Cc4ccc(O)cc4)n3n2)CCO1` (stereo not drawn) [Compound 302], the Ki is 100 to 2000 nM.

For `C[C@@H](c1ccc(O)cc1)c1nnc2ccc(NC3CCCC(C(F)(F)F)C3)nn12` (stereo partly drawn) [Compound 521], the Ki was less than 100 nM.

With `C[C@@H](Nc1ccc2nnc(Cc3ccc(O)cc3)n2n1)c1ccccc1` [Compound 313], the Ki lay in the range of 100 to 2000 nM.

As to `N#Cc1ccc(Cc2nnc3ccc(Nc4cccc(Cl)c4)nn23)cc1` [Compound 474], the Ki fell in the range of 100 to 2000 nM.

Turning to `CCc1cccc(Nc2ccc3nnc(Cc4ccc(O)c(Cl)c4)n3n2)c1` [Compound 290], the Ki is 100 to 2000 nM.

For `COc1ccc(Cc2nnc3ccc(Nc4cccc(Cl)c4)nn23)cc1C(N)=O` [Compound 496], the Ki was more than 2000 nM.

For `C[C@H](c1ccc(O)cc1)c1nnc2ccc(Nc3cccc(Cl)c3)nn12` [Compound 319], the Ki is less than 100 nM.

As to `Clc1cccc(Nc2ccc3nnc(CSc4ccccc4Cl)n3n2)c1` [Compound 389], the Ki is more than 2000 nM.

In the case of `O=C(N[C@@H](Cc1ccccc1)C1=Nn2c(Cc3ccc(O)cc3)nnc2SC1)OCc1ccccc1` [Compound 537], the Ki is more than 2000 nM.

`Oc1ccc(OCc2nnc3ccc(Nc4cccc(Cl)c4)nn23)cc1` [Compound 391]: the Ki lay in the range of 100 to 2000 nM.

As for `CN1C2CCC1CC(Nc1ccc3nnc(Cc4ccc(O)cc4)n3n1)C2` (stereo not drawn) [Compound 417], the Ki was more than 2000 nM.

Consider `CC(C)C(=O)N1CCC(Nc2ccc3nnc(Cc4ccc(O)cc4)n3n2)CC1` [Compound 324], for which the Ki was 100 to 2000 nM.

For the compound `Fc1ccc(SCc2nnc3ccc(Nc4cccc(Cl)c4)nn23)cc1` [Compound 390], the Ki is more than 2000 nM.

In the case of `c1csc(C2=Nn3c(Cc4ccncc4)nnc3SC2)c1` [Compound 545], the Ki is more than 2000 nM.

With `C[C@@H](c1ccc(O)cc1)c1nnc2ccc(Nc3ccc(Cl)nn3)nn12` [Compound 512], the Ki was 100 to 2000 nM.

With `COc1cc(Cc2nnc3ccc(Nc4cccc(Cl)c4)nn23)ccc1O` [Compound 442], the Ki was less than 100 nM.

In the case of `CCN(CC)CC(C)Nc1ccc2nnc(Cc3ccc(O)cc3)n2n1` (stereo not drawn) [Compound 311], the Ki is more than 2000 nM.

On to `COc1cc(OC)c(NCc2nnc3ccc(Nc4cccc(Cl)c4)nn23)cc1Cl` [Compound 345], for which the Ki was more than 2000 nM.

In the case of `Clc1cccc(Nc2ccc3nnc(COc4ccc(Cl)nc4)n3n2)c1` [Compound 375], the Ki is more than 2000 nM.

On to `Oc1ccc(Cc2nnc3ccc(Nc4ccc(F)c(Cl)c4)nn23)cc1` [Compound 424], for which the Ki is less than 100 nM.

With `COc1ccc(NCc2nnc3ccc(Nc4cccc(Cl)c4)nn23)cc1O` [Compound 335], the Ki is more than 2000 nM.

As to `Fc1ccc(Cc2nnc3n2N=C(c2ccccc2)CS3)cc1` [Compound 527], the Ki is more than 2000 nM.

`Cc1nnc(Nc2ccc3nnc([C@@H](C)c4ccc(O)cc4)n3n2)s1` [Compound 500]: the Ki is more than 2000 nM.

Turning to `Fc1ccc(NCc2nnc3ccc(Nc4cccc(Cl)c4)nn23)c(Cl)c1` [Compound 342], the Ki is more than 2000 nM.

On to `C[C@@H](c1ccc(O)cc1)c1nnc2ccc(Nc3ccc(F)c(Cl)c3)nn12` [Compound 426], for which the Ki was less than 100 nM.

Consider `OCCc1cccc(Nc2ccc3nnc(Cc4ccc5c(c4)OCO5)n3n2)c1` [Compound 301], for which the Ki was 100 to 2000 nM.

Consider `COC(=O)c1ccc(NCc2nnc3ccc(Nc4cccc(Cl)c4)nn23)nc1` [Compound 479], for which the Ki was in the range of 100 to 2000 nM.

For `C[C@@H](c1ccc(O)cc1)c1nnc2ccc(Nc3ccncn3)nn12` [Compound 498], the inhibition constant (Ki) fell in the range of 100 to 2000 nM.

As to `C[C@@H](c1ccc(O)cc1)c1nnc2ccc(Nc3ccc(F)nc3)nn12` [Compound 510], the Ki lay within 100 to 2000 nM.

Consider `NC(=O)c1ccc(Cc2nnc3ccc(Nc4cccc(Cl)c4)nn23)cc1` [Compound 494], for which the Ki lay in the range of 100 to 2000 nM.

In the case of `COc1ccc(Cc2nnc3ccc(Nc4cccc(Cl)c4)nn23)cc1Br` [Compound 437], the Ki was 100 to 2000 nM.

Turning to `O=C(O)c1cn(Cc2nnc3ccc(Nc4cccc(Cl)c4)nn23)c2ccccc12` [Compound 461], the Ki is more than 2000 nM.

The assay is the same for the next values; noted with them: coupled enzyme system, 200 μM ATP, 10 μM polyGluTyr, 80 nM c-Met, 30° C.; read-out: c-Met Ki.
On to `Oc1ccc(Cc2nnc3sc(Nc4ccc5nsnc5c4)nn23)cc1` [Compound 70], for which the Ki is more than 2000 nM.

As to `Oc1ccc(Cc2nnc3sc(Nc4cccc(F)c4F)nn23)cc1F` [Compound 99], the Ki lay within 100 to 2000 nM.

In the case of `CCC(CC)Nc1ccc2nnc(Cc3ccc(O)cc3)n2n1` [Compound 281], the Ki is 100 to 2000 nM.

Regarding `Clc1ccc(Nc2nn3c(Cc4ccc5c(c4)OCO5)nnc3s2)cc1` [Compound 56], the Ki was 100 to 2000 nM.

Take `CC(c1ccc(O)cc1)c1nnc2sc(Nc3ccc(Cl)cc3)nn12` (stereo not drawn) [Compound 53]: the Ki was less than 100 nM.

In the case of `COc1ccc(Nc2nn3c(Cc4ccc(O)c(F)c4)nnc3s2)cc1` [Compound 64], the Ki is 100 to 2000 nM.

On to `c1ccc([C@@H]2C[C@H]2c2nn3c(Cc4ccc5c(c4)OCO5)nnc3s2)cc1` [Compound 47], for which the Ki is more than 2000 nM.

As to `Oc1ccc(Cc2nnc3ccc(N4CCC(CCc5ccccc5)C4)nn23)cc1` (stereo not drawn) [Compound 205], the Ki fell in the range of 100 to 2000 nM.

Consider `COc1cccc(Nc2ccc3nnc(Cc4ccc(O)cc4)n3n2)c1` [Compound 184], for which the Ki was less than 100 nM.

Turning to `Oc1ccc(Cc2nnc3sc(Nc4cccc(F)c4F)nn23)cc1Cl` [Compound 128], the Ki was less than 100 nM.

With `Oc1ccc(Cc2nnc3ccc(NCC4CCCO4)nn23)cc1` (stereo not drawn) [Compound 187], the Ki was in the range of 100 to 2000 nM.

Turning to `COc1ccc(Cc2nnc3ccc(Nc4cccc(CO)c4)nn23)cc1` [Compound 262], the Ki lay in the range of 100 to 2000 nM.

On to `Oc1ccc(Cc2nnc3ccc(-c4ccccc4)nn23)cc1F` [Compound 213], for which the Ki fell in the range of 100 to 2000 nM.

For the compound `O=c1[nH]c2ccc(Nc3ccc4nnc(Cc5ccc(O)cc5)n4n3)cc2[nH]1` [Compound 216], the Ki was less than 100 nM.

For `OC[C@H](Cc1ccccc1)Nc1ccc2nnc(Cc3ccc(O)cc3)n2n1` [Compound 191], the Ki was more than 2000 nM.

For the compound `c1csc(-c2nn3c(Cc4ccc5c(c4)OCO5)nnc3s2)c1` [Compound 2, 3-((benzo[d][1,3]dioxol-5-yl)methyl)-6-(thiophen-2-yl)-[1,2,4]triazolo[3,4-b][1,3,4]thiadiazole], the Ki was 100 to 2000 nM.

On to `CC(c1nnc2sc(Nc3cccc(Cl)c3)nn12)n1ccc2ncccc21` (stereo not drawn) [Compound 161], for which the Ki was less than 100 nM.

Regarding `Oc1ccc(Cc2nnc3sc(Nc4ccc(Cl)cc4)nn23)cc1` [Compound 52], the Ki is less than 100 nM.

Take `CSc1cccc(Nc2nn3c(Cn4ccc5c(O)cccc54)nnc3s2)c1` [Compound 169]: the Ki was less than 100 nM.

`CC(c1ccc(O)cc1)c1nnc2sc(Nc3cccc(Cl)c3F)nn12` (stereo not drawn) [Compound 132]: the Ki is less than 100 nM.

`Oc1ccc(Cc2nnc3ccc(NC4CC5CCC4C5)nn23)cc1` (stereo not drawn) [Compound 275]: the Ki is less than 100 nM.

`Oc1ccc(Cc2nnc3sc(Nc4ccccc4Cl)nn23)cc1F` [Compound 79]: the Ki was 100 to 2000 nM.

In the case of `CCN1CCCC1CNc1ccc2nnc(Cc3ccc(O)cc3)n2n1` (stereo not drawn) [Compound 197], the Ki was more than 2000 nM.

`c1ccc(-c2ccc3nnc(CNc4ccncc4)n3n2)cc1` [Compound 211]: the Ki was more than 2000 nM.

With `COc1ccc(Cc2nnc3sc(-c4ccccc4)nn23)cc1` [Compound 3], the Ki is more than 2000 nM.

For `OCc1cccc(Nc2ccc3nnc(Cc4ccc5c(c4)OCO5)n3n2)c1` [Compound 263], the Ki lay in the range of 100 to 2000 nM.

As to `COc1cc(Cc2nnc3sc(Nc4ccccc4)nn23)ccc1O` [Compound 26], the Ki lay within 100 to 2000 nM.

As for `COc1ccc(CNc2ccc3nnc(Cc4ccc(O)cc4)n3n2)cc1` [Compound 267], the Ki lay in the range of 100 to 2000 nM.

For `Oc1ccc(CCc2nnc3sc(Nc4cccc(Cl)c4F)nn23)cc1` [Compound 102], the Ki fell in the range of 100 to 2000 nM.

Turning to `Oc1ccc(CCc2nnc3sc(Nc4cc(F)cc(F)c4)nn23)cc1` [Compound 111], the Ki lay within 100 to 2000 nM.

As for `COc1cccc(Nc2ccc3nnc(Cc4ccc5c(c4)OCO5)n3n2)c1` [Compound 243], the Ki is 100 to 2000 nM.

Consider `Oc1ccc(Cc2nnc3sc(Nc4cccnc4)nn23)cc1F` [Compound 83], for which the Ki fell in the range of 100 to 2000 nM.

With `CC(C)Oc1cccc(Nc2nn3c([C@@H](C)c4ccc(O)cc4)nnc3s2)c1` [Compound 173], the Ki was less than 100 nM.

Turning to `Oc1cccc(Cc2nnc3sc(Nc4cc(F)cc(F)c4)nn23)c1` [Compound 124], the Ki lay in the range of 100 to 2000 nM.

For the compound `Oc1ccc(Cc2nnc3sc(Nc4ccc(Cl)cc4)nn23)cc1F` [Compound 54], the Ki was less than 100 nM.

With `COc1ccccc1Nc1nn2c(C(C)c3ccc(O)cc3)nnc2s1` (stereo not drawn) [Compound 32], the Ki was in the range of 100 to 2000 nM.

With `Oc1ccc(Cc2nnc3sc(Nc4cccc(F)c4)nn23)cc1F` [Compound 108], the Ki was less than 100 nM.

As to `Fc1cccc(Nc2ccc3nnc(Cc4ccc5c(c4)OCO5)n3n2)c1` [Compound 286], the Ki is less than 100 nM.
